What all share (experiment): biochemical
The target in one experiment is T1, AuroraB (Homo sapiens, UniProt Q96GD4).
T1 construct: gene AURKB
The settings on record: read-out: Dundee KSS % inhibition at 1uM. As for the experimental part: (§1) The METi and RAFi were screened against kinase panels (SelectScreen, Invitrogen; University of Dundee, Division of Signal Transduction Therapy, UK; Upstate Biotechnology/Millipore, Billerica, MA). In these selectivity assays the concentration of ATP was set to the Km value of ATP for each kinase tested to allow for a relative potency comparison between the various kinases. The compounds were tested at 1 µM final concentration. […] (A) Kinase selectivity screen (KSS) performed at Upstate Biotechnology. […] (B) KSS performed at University of Dundee (Division of Signal Transduction Therapy). […] (PDF) Click here for additional data file.

The next experiment has as its target T2, CAMK-1 (Homo sapiens, UniProt Q14012).
T2 construct: gene CAMK1
The settings on record: read-out: Dundee KSS % inhibition at 1uM. As for the experimental part:
as §1

The target of the next experiment is T3, CAMKKB (Homo sapiens, UniProt Q96RR4).
T3 construct: gene CAMKK2
The settings on record: read-out: Dundee KSS % inhibition at 1uM. How it is done:
as §1

A further experiment concerns the target DYRK3 (Homo sapiens, UniProt O43781). The following applies: read-out: Dundee KSS % inhibition at 1uM. How it is done:
as §1

The next experiment has as its target T4, JNK2 (Homo sapiens, UniProt P45984).
T4 construct: gene MAPK9
The settings on record: read-out: Dundee KSS % inhibition at 1uM. As for the experimental part: as §1

The target of a further experiment is T5, MAPKAP-K1a (Homo sapiens, UniProt Q15418).
T5 construct: gene RPS6KA1
The following applies: read-out: Dundee KSS % inhibition at 1uM. How it is done:
as §1

The target of a further experiment is MARK3 (Homo sapiens, UniProt P27448). The settings on record: read-out: Dundee KSS % inhibition at 1uM. How it is done: as §1
The next experiment concerns the target T6, MSK1 (Homo sapiens, UniProt O75582).
T6 construct: gene RPS6KA5
The following applies: read-out: Dundee KSS % inhibition at 1uM. As for the experimental part:
as §1

For the next experiment, the target named is T7, NEK2a (Homo sapiens, UniProt P51955).
T7 construct: gene NEK2; isoform A
The following applies: read-out: Dundee KSS % inhibition at 1uM. How it is done:
as §1

The target of the next experiment is NEK6 (Homo sapiens, UniProt Q9HC98). The following applies: read-out: Dundee KSS % inhibition at 1uM. As for the experimental part: as §1
Another experiment addresses NEK7 (Homo sapiens, UniProt Q8TDX7). The settings on record: read-out: Dundee KSS % inhibition at 1uM. How it is done: as §1
The target in the next experiment is T8, P70S6K (Homo sapiens, UniProt P23443).
T8 construct: gene RPS6KB1
The following applies: read-out: Dundee KSS % inhibition at 1uM. How it is done: as §1

The target of another experiment is T9, PKCalpha (Homo sapiens, UniProt P17252).
T9 construct: gene PRKCA
The settings on record: read-out: Dundee KSS % inhibition at 1uM. How it is done:
as §1

For another experiment, the target named is T10, PKD1 (Homo sapiens, UniProt Q15139).
T10 construct: gene PRKD1
The settings on record: read-out: Dundee KSS % inhibition at 1uM. How it is done:
as §1

The target of a further experiment is T11, PRAK (Homo sapiens, UniProt Q8IW41).
T11 construct: gene MAPKAPK5
The following applies: read-out: Dundee KSS % inhibition at 1uM. How it is done: as §1

Another experiment addresses T12, SGK (Homo sapiens, UniProt O00141).
T12 construct: gene SGK1
The settings on record: read-out: Dundee KSS % inhibition at 1uM. As for the experimental part: as §1

The target in a further experiment is T13, deltaPH-PKBalpha (Homo sapiens, UniProt P31749).
T13 construct: gene AKT1; delta PH
The settings on record: read-out: Dundee KSS % inhibition at 1uM. How it is done:
as §1

The next experiment has as its target mouse LCK (Mus musculus, UniProt P06240). The settings on record: read-out: Dundee KSS % inhibition at 1uM. As for the experimental part:
as §1

The next experiment has as its target T14, rat ROCKII (Rattus norvegicus, UniProt Q62868).
T14 construct: gene Rock2
The following applies: read-out: Dundee KSS % inhibition at 1uM. How it is done:
as §1

The target in the next experiment is FER (Homo sapiens, UniProt P16591). Further details: Invitrogen SelectScreen kinase panel, percent inhibition at 1 uM, ATP at Km. The following applies: read-out: Invitrogen KSS %Inh at 1 µM. A digest of the protocol:
(§2)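 Commercial kinase panel screens run with ATP at the Km for each kinase. Compounds tested at 1 µM final concentration; values are % inhibition of phosphorylation relative to control.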

In the next experiment the target is IKBKB (IKK beta) (Homo sapiens, UniProt O14920). Further details: Invitrogen SelectScreen kinase panel, percent inhibition at 1 uM, ATP at Km. The settings on record: read-out: Invitrogen KSS %Inh at 1 µM. A digest of the protocol: as §2
In the next experiment the target is PRKCD (PKC delta) (Homo sapiens, UniProt Q05655). More on the design: Invitrogen SelectScreen kinase panel, percent inhibition at 1 uM, ATP at Km. The settings on record: read-out: Invitrogen KSS %Inh at 1 µM. An outline of the steps: as §2
PRKCD (PKC delta), sequence (Q05655 whole entry): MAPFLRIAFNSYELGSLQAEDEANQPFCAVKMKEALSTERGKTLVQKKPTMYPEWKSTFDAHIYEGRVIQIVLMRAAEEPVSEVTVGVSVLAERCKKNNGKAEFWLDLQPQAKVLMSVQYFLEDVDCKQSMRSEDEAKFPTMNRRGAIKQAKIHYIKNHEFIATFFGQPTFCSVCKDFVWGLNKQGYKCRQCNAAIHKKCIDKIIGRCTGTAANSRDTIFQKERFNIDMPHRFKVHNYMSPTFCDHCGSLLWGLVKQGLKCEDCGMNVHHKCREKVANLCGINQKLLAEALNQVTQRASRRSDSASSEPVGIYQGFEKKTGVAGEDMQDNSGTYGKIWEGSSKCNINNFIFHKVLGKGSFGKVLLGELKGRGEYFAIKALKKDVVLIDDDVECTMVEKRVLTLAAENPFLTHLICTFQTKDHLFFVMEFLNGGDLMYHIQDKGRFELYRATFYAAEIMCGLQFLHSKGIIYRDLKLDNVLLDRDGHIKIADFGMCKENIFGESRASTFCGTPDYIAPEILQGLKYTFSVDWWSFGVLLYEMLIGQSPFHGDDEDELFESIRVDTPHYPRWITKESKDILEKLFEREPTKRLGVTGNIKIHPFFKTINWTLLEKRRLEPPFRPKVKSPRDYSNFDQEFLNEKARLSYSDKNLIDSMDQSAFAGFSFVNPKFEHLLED

T13 sequence (P31749 whole entry): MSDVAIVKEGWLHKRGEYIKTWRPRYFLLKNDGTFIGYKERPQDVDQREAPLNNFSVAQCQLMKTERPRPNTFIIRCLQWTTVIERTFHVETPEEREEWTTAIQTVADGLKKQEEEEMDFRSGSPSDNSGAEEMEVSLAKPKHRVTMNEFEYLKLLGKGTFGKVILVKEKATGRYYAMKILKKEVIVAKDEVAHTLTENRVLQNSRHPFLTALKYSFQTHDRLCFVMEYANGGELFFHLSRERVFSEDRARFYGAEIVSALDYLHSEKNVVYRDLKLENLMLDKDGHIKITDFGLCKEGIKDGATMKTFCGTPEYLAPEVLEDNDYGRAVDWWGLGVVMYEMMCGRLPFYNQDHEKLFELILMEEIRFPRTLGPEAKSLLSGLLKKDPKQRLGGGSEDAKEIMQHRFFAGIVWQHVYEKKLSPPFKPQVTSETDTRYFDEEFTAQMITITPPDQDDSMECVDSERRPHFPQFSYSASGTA
FER, sequence (P16591 whole entry): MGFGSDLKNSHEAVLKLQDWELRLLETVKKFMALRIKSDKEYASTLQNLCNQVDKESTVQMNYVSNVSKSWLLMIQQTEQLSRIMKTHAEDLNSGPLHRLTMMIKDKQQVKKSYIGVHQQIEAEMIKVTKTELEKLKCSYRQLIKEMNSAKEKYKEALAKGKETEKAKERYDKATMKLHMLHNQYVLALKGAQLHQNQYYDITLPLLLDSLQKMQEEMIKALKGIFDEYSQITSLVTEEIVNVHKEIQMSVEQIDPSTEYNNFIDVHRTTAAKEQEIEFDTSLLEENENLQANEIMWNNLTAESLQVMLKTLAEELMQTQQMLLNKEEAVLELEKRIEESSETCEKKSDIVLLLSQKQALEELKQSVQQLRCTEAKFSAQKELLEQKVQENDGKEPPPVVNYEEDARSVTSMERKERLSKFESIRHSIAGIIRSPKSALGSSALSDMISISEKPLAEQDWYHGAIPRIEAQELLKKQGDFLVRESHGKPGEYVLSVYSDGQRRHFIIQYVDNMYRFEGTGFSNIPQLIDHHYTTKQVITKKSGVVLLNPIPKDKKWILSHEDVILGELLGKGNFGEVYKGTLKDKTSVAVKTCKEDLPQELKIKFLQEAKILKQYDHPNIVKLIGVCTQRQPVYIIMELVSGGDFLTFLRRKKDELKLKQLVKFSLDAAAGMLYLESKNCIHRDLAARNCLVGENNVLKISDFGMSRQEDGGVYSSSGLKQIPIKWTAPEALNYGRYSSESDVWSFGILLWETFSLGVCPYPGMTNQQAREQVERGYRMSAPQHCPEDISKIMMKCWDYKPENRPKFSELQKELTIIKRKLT
T1 sequence (Q96GD4 whole entry): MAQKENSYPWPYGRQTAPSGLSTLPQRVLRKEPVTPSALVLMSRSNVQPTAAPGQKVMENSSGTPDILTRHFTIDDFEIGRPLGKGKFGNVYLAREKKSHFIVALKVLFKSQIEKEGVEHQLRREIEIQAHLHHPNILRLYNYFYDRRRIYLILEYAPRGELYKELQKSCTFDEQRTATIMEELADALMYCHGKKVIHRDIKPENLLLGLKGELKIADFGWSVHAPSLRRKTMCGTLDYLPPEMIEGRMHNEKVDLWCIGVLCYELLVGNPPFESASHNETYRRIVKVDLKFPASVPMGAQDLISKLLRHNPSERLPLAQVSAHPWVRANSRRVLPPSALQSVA
T4 sequence (P45984 whole entry): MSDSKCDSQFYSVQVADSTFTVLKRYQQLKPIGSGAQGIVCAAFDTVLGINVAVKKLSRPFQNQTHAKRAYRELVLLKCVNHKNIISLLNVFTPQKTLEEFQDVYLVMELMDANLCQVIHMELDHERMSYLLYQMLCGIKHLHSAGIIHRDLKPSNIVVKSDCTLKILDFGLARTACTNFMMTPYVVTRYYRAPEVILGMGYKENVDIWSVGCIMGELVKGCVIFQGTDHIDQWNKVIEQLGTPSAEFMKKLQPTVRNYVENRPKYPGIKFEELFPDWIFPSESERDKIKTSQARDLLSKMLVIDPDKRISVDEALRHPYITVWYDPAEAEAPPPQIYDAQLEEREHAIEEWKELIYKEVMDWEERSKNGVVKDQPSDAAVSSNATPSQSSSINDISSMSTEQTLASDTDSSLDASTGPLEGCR
T2 sequence (Q14012 whole entry): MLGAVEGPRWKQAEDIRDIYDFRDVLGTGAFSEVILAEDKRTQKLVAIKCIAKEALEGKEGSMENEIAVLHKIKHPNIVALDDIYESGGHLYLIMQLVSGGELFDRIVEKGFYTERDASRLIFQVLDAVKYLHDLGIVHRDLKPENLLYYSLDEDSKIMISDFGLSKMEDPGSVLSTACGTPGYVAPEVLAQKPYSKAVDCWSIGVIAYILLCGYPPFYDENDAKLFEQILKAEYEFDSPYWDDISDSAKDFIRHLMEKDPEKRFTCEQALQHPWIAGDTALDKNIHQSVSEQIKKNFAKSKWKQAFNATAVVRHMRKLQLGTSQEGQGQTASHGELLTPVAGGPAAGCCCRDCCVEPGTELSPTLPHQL
T10 sequence (Q15139 whole entry): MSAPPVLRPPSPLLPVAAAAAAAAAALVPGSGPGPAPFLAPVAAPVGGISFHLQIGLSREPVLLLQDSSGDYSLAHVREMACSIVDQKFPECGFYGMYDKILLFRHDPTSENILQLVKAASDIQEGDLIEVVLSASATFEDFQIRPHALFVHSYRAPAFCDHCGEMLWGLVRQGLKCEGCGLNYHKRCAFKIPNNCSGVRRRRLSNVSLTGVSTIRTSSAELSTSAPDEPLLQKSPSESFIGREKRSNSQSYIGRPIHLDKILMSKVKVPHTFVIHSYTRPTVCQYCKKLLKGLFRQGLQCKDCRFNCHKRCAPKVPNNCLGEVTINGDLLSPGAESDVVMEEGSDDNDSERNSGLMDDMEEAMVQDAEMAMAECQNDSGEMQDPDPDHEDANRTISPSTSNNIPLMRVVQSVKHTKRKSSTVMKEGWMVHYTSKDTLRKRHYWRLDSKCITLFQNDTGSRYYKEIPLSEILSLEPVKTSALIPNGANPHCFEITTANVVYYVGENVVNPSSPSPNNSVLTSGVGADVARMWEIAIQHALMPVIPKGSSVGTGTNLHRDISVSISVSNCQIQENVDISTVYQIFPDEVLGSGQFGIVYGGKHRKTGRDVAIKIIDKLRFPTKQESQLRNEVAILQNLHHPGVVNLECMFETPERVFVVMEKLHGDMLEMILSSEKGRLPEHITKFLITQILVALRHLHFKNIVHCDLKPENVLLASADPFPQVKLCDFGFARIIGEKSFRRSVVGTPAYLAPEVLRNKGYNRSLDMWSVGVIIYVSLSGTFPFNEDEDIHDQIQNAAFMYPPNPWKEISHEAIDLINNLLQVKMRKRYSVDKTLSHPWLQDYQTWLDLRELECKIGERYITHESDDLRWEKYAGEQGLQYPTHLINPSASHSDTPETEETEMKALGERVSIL
IKBKB (IKK beta), sequence (O14920 whole entry): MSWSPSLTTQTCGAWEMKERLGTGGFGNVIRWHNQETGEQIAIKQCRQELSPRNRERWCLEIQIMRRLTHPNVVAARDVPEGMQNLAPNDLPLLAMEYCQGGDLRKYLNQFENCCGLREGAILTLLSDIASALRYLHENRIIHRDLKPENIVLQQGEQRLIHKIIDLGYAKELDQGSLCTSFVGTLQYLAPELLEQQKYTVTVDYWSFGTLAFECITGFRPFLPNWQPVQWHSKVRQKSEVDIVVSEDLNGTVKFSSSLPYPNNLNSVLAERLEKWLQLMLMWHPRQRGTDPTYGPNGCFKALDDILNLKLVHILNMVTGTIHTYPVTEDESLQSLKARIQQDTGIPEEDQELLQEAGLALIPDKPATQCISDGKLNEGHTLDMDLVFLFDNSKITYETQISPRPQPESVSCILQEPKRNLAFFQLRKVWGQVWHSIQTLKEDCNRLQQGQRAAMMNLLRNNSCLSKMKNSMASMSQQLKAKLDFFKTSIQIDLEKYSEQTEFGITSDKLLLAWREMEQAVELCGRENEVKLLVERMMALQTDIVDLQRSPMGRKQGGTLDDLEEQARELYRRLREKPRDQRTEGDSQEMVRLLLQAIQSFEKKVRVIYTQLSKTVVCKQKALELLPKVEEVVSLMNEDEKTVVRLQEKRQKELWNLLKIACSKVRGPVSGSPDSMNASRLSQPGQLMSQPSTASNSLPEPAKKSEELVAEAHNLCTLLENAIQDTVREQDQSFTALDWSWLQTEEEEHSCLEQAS

`OCCn1cc(-c2cnc3nnn(Cc4ccc5ncccc5c4)c3n2)cn1` [METi, PF-04217903]: the inhibition at 1 µM on AuroraB is 11.2%; on CAMK-1, 12.8%; at CAMKKB, 16.2%; on DYRK3, -18.2%; at JNK2, 14.9%; on MAPKAP-K1a, 3.34%. The inhibition at 1 µM on MARK3 was 4.4%; on MSK1 it was 5.55%; on NEK2a it was -7.91%; on NEK6 it was 8.99%; on NEK7 it was -7.5%; at P70S6K it was -0.67%. Moreover, the inhibition at 1 µM amounted to 14.3% on PKCalpha; 6.21% on PKD1; 4.01% on PRAK; 29.4% at SGK; 3.5% on deltaPH-PKBalpha; 15.7% on mouse LCK. For the same compound, the inhibition at 1 µM at rat ROCKII was determined as 12.8%.

In the case of `N#CCCNc1nccc(-c2cn(CC(F)F)nc2-c2cnc3[nH]ccc3c2)n1` [RAFi, PF-04880594], the inhibition at 1 µM is -2% on FER, 0% at IKBKB (IKK beta) and 6% on PRKCD (PKC delta).
